Data from publication PMC10669118 (2023).

Columns and labels:
[1] = system: 22AG (DNA, G4) AGGGTTAGGGTTAGGGTTAGGG; experiment: FRET melting; details: 10 mM KCl, 20 mM sodium phosphate, pH 7.4, 20 µM compound; for binding: 1 µM DNA (legend of Figure 3 prints them reversed)
[2] = system: 22CTA (DNA, G4) AGGGCTAGGGCTAGGGCTAGGG; experiment: FRET melting; details: 10 mM KCl, 20 mM sodium phosphate, pH 7.4, 20 µM compound
[3] = system: cKit1 (HEX) (DNA, G4) GGGAGGGCGCTGGGAGGAGGG; experiment: microscale thermophoresis; details: 10 mM KCl, 20 mM sodium phosphate; pH 7.4, 22 °C, DMSO and Tween 20; said to be submicromolar
[4] = system: cMyc (DNA, G4) TGAGGGTGGGTAGGGTGGGTAA; experiment: FRET melting; details: 10 mM KCl, 20 mM sodium phosphate; pH 7.4; 20 µM compound, 1 µM DNA
[5] = system: cKit1 (DNA, G4) GGGAGGGCGCTGGGAGGAGGG; experiment: FRET melting; details: 10 mM KCl, 20 mM sodium phosphate; pH 7.4; 20 µM compound, 1 µM DNA
[6] = system: Ct1 (DNA, G4) GGTGACAGGGGTATGGGGAGGGG; experiment: FRET melting; details: 10 mM KCl, 20 mM sodium phosphate; pH 7.4; 20 µM compound, 1 µM DNA
[7] = system: BclT (DNA, G4) GGGGGCCGTGGGGTGTGAGCTGGGG; experiment: FRET melting; details: 10 mM KCl, 20 mM sodium phosphate; pH 7.4; 20 µM compound, 1 µM DNA
[8] = system: STAT (DNA, G4) GGGCTGGGGATGGGGAGGGGG; experiment: FRET melting; details: 10 mM KCl, 20 mM sodium phosphate; pH 7.4; 20 µM compound, 1 µM DNA
[9] = system: VEGF (DNA, G4) GGGAGGGTTGGGGTGGG; experiment: FRET melting; details: 25 mM LiCl, 5 mM sodium phosphate; pH 7.4; 20 µM compound, 1 µM DNA
[10] = system: Hair (DNA, hairpin) GTATAGCTATTTTTATAGCTATA; experiment: FRET melting; details: 10 mM KCl, 20 mM sodium phosphate; pH 7.4; 20 µM compound, 1 µM DNA
[11] = system: STAT (HEX) (DNA, G4) GGGCTGGGGATGGGGAGGGGG; experiment: microscale thermophoresis; details: 10 mM KCl, 20 mM sodium phosphate; pH 7.4, 22 °C, DMSO and Tween 20; said to be submicromolar

In the case of NCCNC(=O)COc1cc2nc3ccn(CC(=O)NCCN)c(=O)n3c2c2ccccc12, the binding [1] was “yes”, the binding ([2]; 1 µM DNA (legend of Figure 3 prints them reversed)) was “yes” and the Kd [3] was 0.5 µM.
Compound NCCNC(=O)Cn1ccc2nc3cc(O)ccc3n2c1=O has a ΔTm ([1]; 1 µM DNA) of 1 ± 2 °C, a ΔTm [4] of 1 ± 2 °C and a ΔTm [5] of 3 ± 2 °C. For the same compound, the ΔTm [6] was 2 ± 2 °C, the ΔTm [7] was 0 ± 2 °C and the ΔTm [8] was 1 ± 2 °C. The ΔTm [9] was 1 ± 2 °C, the ΔTm ([2]; 1 µM DNA) was 1 ± 2 °C and the ΔTm [10] was -1 ± 2 °C.
With CN(C)CCNC(=O)COc1ccc2c(c1)nc1ccn(CC(=O)NCCN(C)C)c(=O)n12 the Kd [11] was 0.4 µM.
With NCCNC(=O)Cn1ccc2nc3cc(O)c4ccccc4c3n2c1=O the Kd [3] was 0.6 µM and the Kd [11] was 0.5 µM.
For N=C(N)NCCNC(=O)COc1cc2nc3ccn(CC(=O)NCCNC(=N)N)c(=O)n3c2c2ccccc12, the binding [1] was “yes”.
